Legend:
[1] = test system: hepatocytes; test: Biological activity of released hEGF in in-vitro cell culture; assay type: cell-based; details: subsequent studies using hepatocytes
[2] = target: T1, xanthine oxidase (Bos taurus, UniProt P80457); test: Enzyme activity of xanthine oxidase in the device piece (Sigma Enzymatic Assay of Superoxide Dismutase protocol); assay type: biochemical; details: 0.01 unit solution
T1 construct: purchased Sigma Chemical Company, St. Louis Mo
Protocol: A single cylinder piece, prepared as described above in Example 1, was added to a reaction chamber in a spectrophotometer containing xanthine, cytochrome C and other reactants according to previously described superoxide dismutase protocol (Sigma Quality Control Test Procedure EC 1.15.1.1 “Enzymatic Assay of Superoxide Dismutase”) enzyme activity of the enzyme xanthine oxidase in the piece was calculated at 0.0005 delta absorbance min (absorbance measured at 550 mm where no enzyme activity produces 0.00000 change in absorbance). In comparison to a 0.01 unit solution of xanthine oxidase, which produced 0.0250 delta absorbance/min, the activity of the xanthine oxidase in the piece equaled 1% of the control solution in a time period of only 3 minutes.

T1 sequence (P80457 2-1332 limits assumed): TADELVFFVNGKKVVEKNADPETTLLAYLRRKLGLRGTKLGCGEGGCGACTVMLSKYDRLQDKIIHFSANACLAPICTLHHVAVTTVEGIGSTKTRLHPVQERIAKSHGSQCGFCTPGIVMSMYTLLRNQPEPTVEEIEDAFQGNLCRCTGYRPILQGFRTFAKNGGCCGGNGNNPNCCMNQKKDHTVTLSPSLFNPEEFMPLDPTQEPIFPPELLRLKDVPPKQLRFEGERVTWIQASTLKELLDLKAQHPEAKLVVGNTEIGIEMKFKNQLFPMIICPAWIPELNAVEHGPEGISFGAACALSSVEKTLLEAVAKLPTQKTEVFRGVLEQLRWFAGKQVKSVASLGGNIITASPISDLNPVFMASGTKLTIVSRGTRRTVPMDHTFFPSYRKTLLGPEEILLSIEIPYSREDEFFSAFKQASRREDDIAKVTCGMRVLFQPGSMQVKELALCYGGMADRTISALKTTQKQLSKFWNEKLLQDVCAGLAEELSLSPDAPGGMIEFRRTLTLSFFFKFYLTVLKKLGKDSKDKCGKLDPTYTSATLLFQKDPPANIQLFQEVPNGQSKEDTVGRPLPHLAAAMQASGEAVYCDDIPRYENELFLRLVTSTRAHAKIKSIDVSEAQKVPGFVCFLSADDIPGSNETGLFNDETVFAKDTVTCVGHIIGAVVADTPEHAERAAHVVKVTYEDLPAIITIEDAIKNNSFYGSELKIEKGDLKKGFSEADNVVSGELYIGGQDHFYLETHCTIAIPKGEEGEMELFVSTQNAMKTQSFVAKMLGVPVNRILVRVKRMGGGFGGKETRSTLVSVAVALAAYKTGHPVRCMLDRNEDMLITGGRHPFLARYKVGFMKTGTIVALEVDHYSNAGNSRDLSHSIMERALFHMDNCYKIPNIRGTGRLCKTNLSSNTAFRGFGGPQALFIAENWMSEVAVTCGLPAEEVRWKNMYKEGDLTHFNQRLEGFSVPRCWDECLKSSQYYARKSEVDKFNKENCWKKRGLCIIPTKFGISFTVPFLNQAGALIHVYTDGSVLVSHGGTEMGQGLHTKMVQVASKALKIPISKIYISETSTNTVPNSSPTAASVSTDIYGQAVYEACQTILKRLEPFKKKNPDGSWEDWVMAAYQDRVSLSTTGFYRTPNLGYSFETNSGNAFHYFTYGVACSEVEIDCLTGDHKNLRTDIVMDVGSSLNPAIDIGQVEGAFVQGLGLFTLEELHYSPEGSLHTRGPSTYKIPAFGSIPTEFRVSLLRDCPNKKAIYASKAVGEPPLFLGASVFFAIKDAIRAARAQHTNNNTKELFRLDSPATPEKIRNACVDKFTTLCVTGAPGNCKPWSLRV

rate produced by xanthine oxidase solution [2] [delta absorbance/min] | Substance | biological activity of released hEGF [1]
– | hEGF: recombinant human epidermal growth factor (R&D System) (NSDSECPLSHDGYCLHDGVCMYIEALDKYACNCVVGYIGERCQYRDLKWWELR; not fully specified; Epidermal growth factor; UniProt P01133 971-1023, looked up) | has biological activity
0.0250 | xanthine oxidase | –

Source: patent publication US8871267B2, “Protein matrix materials, devices and methods of making and using thereof” (Gel-Del Technologies, Inc., priority 1998, dated 2014)
